27 compounds from BindingDB's records for doi:10.7270/Q2959G0B (Nmmlsc, 2009) can be followed below.

The assay has as its target Ras-related C3 botulinum toxin substrate 1 (Mus musculus, UniProt P63001). As to the kind of experiment: blockers of fluorescent GTP loading onto wildtype Rac1 – biochemical, pyrazoline analogs, multiplex, flow cytometry, Ki, SAR follow-up (AID 2055). Particulars: inactive by the depositor's call. On the technique in general: In flow cytometry, cells or beads pass a laser one at a time.
The term EC50 denotes the concentration that produces a half-maximal response. The compound `FC(F)(F)c1cccc(N2N=C(c3ccc(Cl)cc3)CC2c2ccccc2Cl)c1` (configuration not stated) [UNM-0000305859] gave an EC50 of 30 µM.
With `COc1ccc(C2CC(c3cccc(N(C)C)c3)=NN2c2ccc(S(N)(=O)=O)cc2)cc1` (configuration not stated) the figure was 30 µM; with `COc1ccc(C2CC(c3ccc(C)cc3)=NN2c2ccc(S(N)(=O)=O)cc2)cc1` (configuration not stated), 30 µM; with `O=[N+]([O-])c1cccc(C2C[C-](c3ccc(F)cc3)N=[N+]2c2ccccc2)c1` (configuration not stated) [5-(4-fluorophenyl)-3-(3-nitrophenyl)-2-phenyl-3,4-dihydropyrazole], 30 µM.
On to `Cc1ccccc1C1CC(c2ccccc2)=NN1c1ccc(S(N)(=O)=O)cc1` (configuration not stated) [UNM-0000306148], for which the EC50 stood at 30 µM.
The result for `Cc1ccc(C2CC(c3ccccc3)=NN2c2ccc(S(N)(=O)=O)cc2)cc1` (configuration not stated) reads 30 µM; that for `Clc1ccc(N2N=C(c3ccccc3)CC2c2ccccc2)cc1` (configuration not stated), 30 µM.
In turn, `Fc1ccccc1C1CC(c2ccc(Br)cc2)=NN1c1ccc(Br)cc1` (configuration not stated) [2,5-bis(4-bromophenyl)-3-(2-fluorophenyl)-3,4-dihydropyrazole] registered a concentration giving a half-maximal response (EC50) of 30 µM.
With `NS(=O)(=O)c1ccc(N2N=C(c3ccccc3)CC2c2ccccc2Cl)cc1` (configuration not stated) [KUC103446N] the figure was 30 µM.
The result for `Cc1ccccc1[N+]1=N[C-](c2ccccc2)CC1c1cccc([N+](=O)[O-])c1` (configuration not stated) [UNM-0000305854] reads 30 µM.
With `COc1ccc(C2CC(c3ccsc3)=NN2c2ccc(S(N)(=O)=O)cc2)cc1` (configuration not stated) [4-[3-(4-methoxyphenyl)-5-thiophen-3-yl-3,4-dihydropyrazol-2-yl]benzenesulfonamide] the figure was 30 µM; with `COc1ccc(-c2cc(-c3ccccc3)nn2-c2ccc(S(N)(=O)=O)cc2)cc1` [4-[5-(4-methoxyphenyl)-3-phenylpyrazol-1-yl]benzenesulfonamide], 30 µM; with `COc1ccc(C2=NN(c3cccc(F)c3)C(c3ccc(Cl)cc3)C2)cc1` (configuration not stated) [3-(4-chlorophenyl)-2-(3-fluorophenyl)-5-(4-methoxyphenyl)-3,4-dihydropyrazole], 30 µM.
`COc1ccc(C2=NN(c3ccccc3)C(c3ccc(OC)c(OC)c3C(=O)O)C2)cc1` (configuration not stated) [UNM-0000305848] had an EC50 of 30 µM.
With `NS(=O)(=O)c1ccc(N2N=C(c3ccccc3)CC2c2cccc(Cl)c2)cc1` (configuration not stated) [UNM-0000306161] the figure was 30 µM; with `COc1ccc(C2CC(c3ccc(Cl)cc3)=NN2c2ccc(S(N)(=O)=O)cc2)cc1` (configuration not stated), 30 µM; with `COc1ccc(C2CC(c3cccc(OC)c3)=NN2c2ccc(S(N)(=O)=O)cc2)cc1` (configuration not stated) [4-[5-(3-methoxyphenyl)-3-(4-methoxyphenyl)-3,4-dihydropyrazol-2-yl]benzenesulfonamide], 30 µM.
With `COc1ccc(C2CC(c3ccc(Br)cc3)=NN2c2ccccc2Cl)cc1` (configuration not stated) [UNM-0000305832] the figure was 30 µM; with `Cc1onc(-c2ccccc2)c1-c1ccc(S(N)(=O)=O)cc1`, 30 µM.
The result for `COc1ccc(C2CC(c3ccccc3)=NN2c2ccc(Cl)c(C(=O)O)c2)cc1OC` (configuration not stated) [2-chloro-5-[3-(3,4-dimethoxyphenyl)-5-phenyl-3,4-dihydropyrazol-2-yl]benzoic acid] reads 30 µM; that for `CN(C)c1ccc(C2CC(c3ccc(F)cc3)=NN2c2ccccc2)cc1` (configuration not stated) [UNM-0000305866], 30 µM.
On to `O=[N+]([O-])c1cccc(C2C[C-](c3ccccc3)N=[N+]2c2ccccc2)c1` (configuration not stated) [UNM-0000305857], for which a half-maximal response (EC50) required 30 µM.
In turn, `COc1cccc(C2CC(c3ccccc3)=NN2c2ccc(S(N)(=O)=O)cc2)c1` (configuration not stated) [4-[3-(3-methoxyphenyl)-5-phenyl-3,4-dihydropyrazol-2-yl]benzenesulfonamide] displayed an EC50 of 30 µM.
In turn, `COc1ccc(C2CC(c3ccc(F)cc3)=NN2c2cc(Cl)ccc2Cl)cc1` (configuration not stated) [2-(2,5-dichlorophenyl)-5-(4-fluorophenyl)-3-(4-methoxyphenyl)-3,4-dihydropyrazole] showed an EC50 of 0.089 µM.
`COc1ccc(C2CC(c3ccncc3)=NN2c2ccc(S(N)(=O)=O)cc2)cc1` (configuration not stated) returned an EC50 of 30 µM.
As to `CN(C)c1ccc(C2CC(c3ccc(Br)cc3)=NN2c2ccccc2)cc1` (configuration not stated) [UNM-0000305846], the EC50 is 30 µM. This lies in the double-digit micromolar range.
On to `COc1ccc(C2=NN(c3ccccc3)C(c3ccc(Cl)cc3)C2)cc1` (configuration not stated) [UNM-0000305833], for which a half-maximal response (EC50) required 30 µM.
